In patent US10251889B2, “Substituted pyrazolo[1,5-a]pyrimidine compounds as Trk kinase inhibitors” (Array BioPharma, Inc., priority 2009, dated 2019):

Columns and labels:
[1] = target: TrkA (histidine-tagged recombinant human TrkA, cytoplasmic domain) (Homo sapiens (Human), UniProt P04629); assay: TrkA ELISA assay; assay type: biochemical; settings: Table 1, 500 μM ATP, read-out: TrkA Enzyme IC50
Description: An enzyme-linked immunosorbant assay (ELISA) was used to assess TrkA kinase activity in the presence of inhibitors. Immulon 4HBX 384-well microtiter plates (Thermo part #8755) were coated with a 0.025 mg/mL solution of poly (Glu, Ala, Tyr; 6:3:1; Sigma P3899). […] The assay buffer consisted of 25 mM MOPS pH 7.5, 0.005% (v/v) Triton X-100 and 5 mM MgCl2. The reaction mixture was removed from the plate by washing with PBS containing 0.1% (v/v) Tween 20. The phosphorylated reaction product was detected using 0.2 μg/mL of a phosphotyrosine specific monoclonal antibody (clone PY20) conjugated to horseradish peroxidase in conjunction with the TMB Peroxidase Substrate System (KPL). After the addition of 1M phosphoric acid, the chromogenic substrate color intensity was quantitated via absorbance at 450 nm.

[2] = target: Jak2 (human Jak2 kinase domain, amino acids 808-1132) (Homo sapiens (Human), UniProt O60674); assay: Jak2 inhibition assay (Omnia kinase assay); assay type: biochemical; settings: for IC50: Table 1, 500 μM ATP, >1000 nM when >50% inhibition not observed at 1000 nM, read-out: Jak2 Enzyme IC50; for inhibition at 1 µM: read-out: Jak2 Enzyme (% inhibition at 1000 nM), Table 1, 1000 nM test compound
Sequence of Jak2 (human Jak2 kinase domain, amino acids 808-1132) (O60674 808-1132): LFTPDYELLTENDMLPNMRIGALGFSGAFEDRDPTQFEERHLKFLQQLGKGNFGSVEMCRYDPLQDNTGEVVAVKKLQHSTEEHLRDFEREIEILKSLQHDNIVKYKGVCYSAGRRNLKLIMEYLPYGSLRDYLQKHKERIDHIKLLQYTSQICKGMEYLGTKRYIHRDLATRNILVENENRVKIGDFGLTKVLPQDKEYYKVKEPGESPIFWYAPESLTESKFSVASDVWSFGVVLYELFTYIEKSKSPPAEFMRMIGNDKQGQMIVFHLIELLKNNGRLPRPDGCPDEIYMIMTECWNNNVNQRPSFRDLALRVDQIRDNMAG

Sequence of TrkA (histidine-tagged recombinant human TrkA, cytoplasmic domain) (P04629 440-796): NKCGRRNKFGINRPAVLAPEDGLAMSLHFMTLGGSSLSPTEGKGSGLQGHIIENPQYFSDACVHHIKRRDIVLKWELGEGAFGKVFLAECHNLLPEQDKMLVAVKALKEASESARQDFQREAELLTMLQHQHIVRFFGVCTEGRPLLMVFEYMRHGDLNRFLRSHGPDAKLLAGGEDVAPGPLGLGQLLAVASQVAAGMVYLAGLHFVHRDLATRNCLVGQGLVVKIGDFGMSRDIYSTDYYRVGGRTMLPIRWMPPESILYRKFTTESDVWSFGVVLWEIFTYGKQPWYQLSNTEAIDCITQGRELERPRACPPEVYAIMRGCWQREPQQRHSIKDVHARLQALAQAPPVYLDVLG

IC50 [1] [µM]	IC50 [2] [µM]	inhibition at 1 µM [2] [%]	SMILES
0.008	> 1	25.2	C[C@@H](NC(=O)c1cnn2ccc(N3CCC[C@@H]3c3cncc(F)c3)nc12)C(F)(F)F [Example 129, 5-((R)-2-(5-fluoropyridin-3-yl)pyrrolidin-1-yl)-N-((R)-1,1,1-trifluoropropan-2-yl)pyrazolo[1,5-a]pyrimidine-3-carboxamide]
0.016	–	14.4	O=C(N[C@@H]1CCC[C@H]1O)c1cnn2ccc(N3CCC[C@@H]3c3cncc(F)c3)nc12 [Example 133, 5-((R)-2-(5-fluoropyridin-3-yl)pyrrolidin-1-yl)-N-((1R,2R)-2-hydroxycyclopentyl)pyrazolo[1,5-a]pyrimidine-3-carboxamide]
0.0127	> 1	12.5	CCc1ncc(F)cc1[C@H]1CCCN1c1ccn2ncc(C(=O)N[C@H]3CC[C@H](O)C3)c2n1 [Example 200, 5-((R)-2-(2-ethyl-5-fluoropyridin-3-yl)pyrrolidin-1-yl)-N-((1S,3S)-3-hydroxycyclopentyl)pyrazolo[1,5-a]pyrimidine-3-carboxamide]
